The experiment is described as follows: Activation of human platelet aggregation (gel-filtered platelets) induced by alpha thrombin.

As to `NCCCC[C@H](NC(=O)[C@H](CC1CCCCC1)NC(=O)c1nnc(N)[nH]1)C(=O)N[C@@H](Cc1ccccc1)C(N)=O` [5-Amino-1H-[1,2,4]triazole-3-carboxylic acid {(S)-1-[(S)-5-amino-1-((S)-1-carbamoyl-2-phenyl-ethylcarbamoyl)-pentylcarbamoyl]-2-cyclohexyl-ethyl}-amide], the response was half-maximal at 3.9 µM (EC50).
Consider `N=C(N)NCCC[C@H](NC(=O)[C@H](CC1CCCCC1)NC(=O)c1nnc(NC(=O)C=Cc2cccc(Cl)c2)[nH]1)C(=O)N[C@@H](Cc1ccccc1)C(N)=O` [5-[(E)-3-(3-Chloro-phenyl)-acryloylamino]-1H-[1,2,4]triazole-3-carboxylic acid {(S)-1-[(S)-1-((S)-1-carbamoyl-2-phenyl-ethylcarbamoyl)-4-guanidino-butylcarbamoyl]-2-cyclohexyl-ethyl}-amide], for which a half-maximal effect (EC50) was put at 2.4 µM. Against the preceding compound, the EC50 is about 1.6-fold lower.
The result for `N=C(N)NCCC[C@H](NC(=O)[C@H](CC1CCCCC1)NC(=O)c1nnc(NC(=O)C=Cc2ccc(F)cc2)[nH]1)C(=O)N[C@@H](Cc1ccccc1)C(N)=O` [5-[(E)-3-(4-Fluoro-phenyl)-acryloylamino]-1H-[1,2,4]triazole-3-carboxylic acid {(S)-1-[(S)-1-((S)-1-carbamoyl-2-phenyl-ethylcarbamoyl)-4-guanidino-butylcarbamoyl]-2-cyclohexyl-ethyl}-amide] reads 7.9 µM; that for `N=C(N)NCCC[C@H](NC(=O)[C@H](CC1CCCCC1)NC(=O)c1nnc(NC(=O)C=Cc2ccccc2)[nH]1)C(=O)N[C@@H](Cc1ccccc1)C(N)=O` [5-[(E)-(3-Phenyl-acryloyl)amino]-1H-[1,2,4]triazole-3-carboxylic acid {(S)-1-[(S)-1-((S)-1-carbamoyl-2-phenyl-ethylcarbamoyl)-4-guanidino-butylcarbamoyl]-2-cyclohexyl-ethyl}-amide], 21 µM.
